Like-named read-outs stand apart in the source and are kept apart here.
Legend:
cyclin D1 = experiment: Cyclin D1 percentage degradation in Calu-1 cells (immunoblotting); assay type: cell-based; settings: 16 hours
Summary of the method: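 Cyclin D1 degradation was assessed by western blot. Clarified lysates, obtained by RIPA lysis with inhibitors and centrifugation at 13,000 rpm, were normalized by BCA protein assay and separated by SDS-PAGE. Bands were detected with Western ECL Substrate on a Bio-Rad ChemiDoc MP Imaging system and quantified in Image Lab software to derive percentage degradation.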

CDK4 = target: T1, CDK4 (Homo sapiens, UniProt P11802); experiment: CDK4 percentage degradation in Calu-1 cells (immunoblotting); assay type: cell-based; settings: for inhibition at 0.2 µM: read-out: CDK4 Degradation (200 nM); for inhibition at 10 µM: read-out: CDK4 Degradation (10 μM)
T1 construct: endogenous in cells; host or cells: Calu-1
Summary of the method: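 CDK4 degradation was measured by immunoblotting. Cells were washed in cold PBS and lysed in RIPA buffer with inhibitors for 30 min at 4° C., then spun at 13,000 rpm to clear. After BCA protein determination, lysates were heated at 99° C. for 5 min in Laemmli buffer, resolved on SDS-PAGE, imaged on a ChemiDoc MP with ECL substrate, and band intensities quantified.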

T1 sequence (P11802 2-303 limits assumed): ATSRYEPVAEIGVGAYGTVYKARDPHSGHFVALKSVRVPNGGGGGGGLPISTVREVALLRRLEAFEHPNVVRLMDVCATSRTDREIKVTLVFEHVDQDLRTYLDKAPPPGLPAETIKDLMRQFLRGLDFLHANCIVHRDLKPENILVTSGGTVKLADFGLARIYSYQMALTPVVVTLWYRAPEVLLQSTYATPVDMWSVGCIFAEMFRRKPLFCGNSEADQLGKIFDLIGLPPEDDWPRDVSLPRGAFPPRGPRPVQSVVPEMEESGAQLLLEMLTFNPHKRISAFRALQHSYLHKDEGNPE
T1 sequence (P24385 whole entry partner): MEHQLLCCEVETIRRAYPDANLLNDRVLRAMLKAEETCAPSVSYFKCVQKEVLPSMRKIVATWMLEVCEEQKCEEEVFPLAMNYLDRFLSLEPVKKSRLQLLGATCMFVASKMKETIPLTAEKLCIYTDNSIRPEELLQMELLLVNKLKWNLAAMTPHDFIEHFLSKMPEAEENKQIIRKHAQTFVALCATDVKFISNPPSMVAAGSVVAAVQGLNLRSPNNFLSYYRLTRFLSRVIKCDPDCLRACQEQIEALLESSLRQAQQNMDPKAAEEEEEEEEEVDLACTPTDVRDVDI
T1 sequence (Q16531 2-1140 limits assumed, further chain): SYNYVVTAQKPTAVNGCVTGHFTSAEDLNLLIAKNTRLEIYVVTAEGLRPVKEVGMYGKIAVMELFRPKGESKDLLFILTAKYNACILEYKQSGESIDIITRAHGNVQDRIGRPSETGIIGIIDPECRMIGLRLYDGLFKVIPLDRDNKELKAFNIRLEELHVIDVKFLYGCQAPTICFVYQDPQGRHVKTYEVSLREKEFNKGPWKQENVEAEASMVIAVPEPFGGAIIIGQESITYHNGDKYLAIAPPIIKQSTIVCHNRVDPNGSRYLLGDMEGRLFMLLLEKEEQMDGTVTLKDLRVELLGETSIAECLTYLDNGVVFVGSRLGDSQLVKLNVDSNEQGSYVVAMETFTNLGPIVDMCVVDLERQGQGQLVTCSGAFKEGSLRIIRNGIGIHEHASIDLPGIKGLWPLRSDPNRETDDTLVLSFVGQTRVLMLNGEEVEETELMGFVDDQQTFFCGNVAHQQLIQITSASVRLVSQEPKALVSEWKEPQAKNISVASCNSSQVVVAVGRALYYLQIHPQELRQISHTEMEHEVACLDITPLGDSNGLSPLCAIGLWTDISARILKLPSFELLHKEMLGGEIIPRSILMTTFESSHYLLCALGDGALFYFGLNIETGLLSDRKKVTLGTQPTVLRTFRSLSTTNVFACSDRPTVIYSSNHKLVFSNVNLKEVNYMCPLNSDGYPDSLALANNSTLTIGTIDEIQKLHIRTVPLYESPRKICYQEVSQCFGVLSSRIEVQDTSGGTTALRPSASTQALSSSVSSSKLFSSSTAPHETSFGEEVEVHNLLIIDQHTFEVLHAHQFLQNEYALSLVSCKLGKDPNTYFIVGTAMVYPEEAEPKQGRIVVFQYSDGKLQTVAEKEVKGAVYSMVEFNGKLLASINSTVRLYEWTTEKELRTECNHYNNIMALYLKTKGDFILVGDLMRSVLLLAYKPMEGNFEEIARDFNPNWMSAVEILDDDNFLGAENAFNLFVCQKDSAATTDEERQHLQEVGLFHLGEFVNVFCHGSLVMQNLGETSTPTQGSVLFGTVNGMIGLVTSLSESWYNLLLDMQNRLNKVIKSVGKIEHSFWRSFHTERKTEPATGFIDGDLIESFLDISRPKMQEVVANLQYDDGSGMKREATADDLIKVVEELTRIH

CC(=O)c1c(C)c2cnc(Nc3ccc(N4CCN(CC(=O)NCCOCCOCCC(=O)Nc5ccccc5C(=O)Nc5ccc(C6CC6)cn5)CC4)cn3)nc2n(C2CCCC2)c1=O [CPD-184, 2-(3-(2-(2-(2-(4-(6-((6-Acetyl-8-cyclopentyl-5-methyl-7-oxo-7,8-dihydropyrido[2,3-d]pyrimidin-2-yl)amino)pyridin-3-yl)piperazin-1-yl)acetamido)ethoxy)ethoxy)propanamido)-N-(5-cyclopropylpyridin-2-yl)benzamide]
CyclinD1 Degradation (200 nM) (cyclin D1): A (protein percentage degradation >=80%)
inhibition at 0.2 µM (CDK4; Calu-1 cells, 200 nM, 16 hours): 50 to 80%

Cc1nc(NC(=O)c2ccccc2NC(=O)CCCCCCCCNC(=O)CN2CCN(Cc3ccc(Nc4ncc(F)c(-c5cc(F)c6nc(C)n(C(C)C)c6c5)n4)nc3)CC2)sc1C [CPD-279, N-(4,5-Dimethylthiazol-2-yl)-2-(9-(2-(4-((6-((5-fluoro-4-(4-fluoro-1-isopropyl-2-methyl-1H-benzo[d]imidazol-6-yl)pyrimidin-2-yl)amino)pyridin-3-yl)methyl)piperazin-1-yl)acetamido)nonanamido)benzamide]
CyclinD1 Degradation (10 μM) (cyclin D1): D (protein percentage degradation < 30%)
inhibition at 10 µM (CDK4; Calu-1 cells, 16 hours): < 30%

CC(=O)c1c(C)c2cnc(Nc3ccc(N4CCN(CC(=O)NCCCCCCCNc5cccc(C(=O)Nc6ccc(C)nc6)c5C)CC4)cn3)nc2n(C2CCCC2)c1=O [CPD-328, 3-((7-(2-(4-(6-((6-Acetyl-8-cyclopentyl-5-methyl-7-oxo-7,8-dihydropyrido[2,3-d]pyrimidin-2-yl)amino)pyridin-3-yl)piperazin-1-yl)acetamido)heptyl)amino)-2-methyl-N-(6-methylpyridin-3-yl)benzamide]
CyclinD1 Degradation (200 nM) (cyclin D1): D (protein percentage degradation <30%)
inhibition at 0.2 µM (CDK4; Calu-1 cells, 200 nM, 16 hours): < 30%

CC(=O)c1c(C)c2cnc(Nc3ccc(N4CCN(CC(=O)NCCCCCCCNc5cccc(C(=O)Nc6cc(C)n(C)n6)c5C)CC4)cn3)nc2n(C2CCCC2)c1=O [CPD-329, 3-((7-(2-(4-(6-((6-Acetyl-8-cyclopentyl-5-methyl-7-oxo-7,8-dihydropyrido[2,3-d]pyrimidin-2-yl)amino)pyridin-3-yl)piperazin-1-yl)acetamido)heptyl)amino)-N-(1,5-dimethyl-1H-pyrazol-3-yl)-2-methylbenzamide]
CyclinD1 Degradation (200 nM) (cyclin D1): A (protein percentage degradation >=80%)
inhibition at 0.2 µM (CDK4; Calu-1 cells, 200 nM, 16 hours): > 80%

CCCCNc1ccc(NC(=O)CCOCCOCCNC(=O)CN2CCN(c3ccc(Nc4ncc5c(C)c(C(C)=O)c(=O)n(C6CCCC6)c5n4)nc3)CC2)c(C(=O)Nc2nc(C)c(C)s2)c1 [CPD-148, 2-(3-(2-(2-(2-(4-(6-((6-Acetyl-8-cyclopentyl-5-methyl-7-oxo-7,8-dihydropyrido[2,3-d]pyrimidin-2-yl)amino)pyridin-3-yl)piperazin-1-yl)acetamido)ethoxy)ethoxy)propanamido)-5-(butylamino)-N-(4,5-dimethylthiazol-2-yl)benzamide]
CyclinD1 Degradation (200 nM) (cyclin D1): D (protein percentage degradation <30%)
inhibition at 0.2 µM (CDK4; Calu-1 cells, 200 nM, 16 hours): < 30%

CC(=O)c1c(C)c2cnc(Nc3ccc(N4CCN(CCCCCCCCCCCC(=O)Nc5ccccc5C(=O)Nc5nc(C)c(C)s5)CC4)cn3)nc2n(C2CCCC2)c1=O [CPD-177, 2-(12-(4-(6-((6-Acetyl-8-cyclopentyl-5-methyl-7-oxo-7,8-dihydropyrido[2,3-d]pyrimidin-2-yl)amino)pyridin-3-yl)piperazin-1-yl)dodecanamido)-N-(4,5-dimethylthiazol-2-yl)benzamide]
CyclinD1 Degradation (200 nM) (cyclin D1): D (protein percentage degradation <30%)
inhibition at 0.2 µM (CDK4; Calu-1, 16 h): < 30%

Cc1nc(NC(=O)c2ccccc2NC(=O)CCOCCNC(=O)CN2CCN(c3ccc(Nc4ncc(F)c(-c5cc(F)c6nc(C)n(C(C)C)c6c5)n4)nc3)CC2)sc1C [CPD-308, N-(4,5-Dimethylthiazol-2-yl)-2-(3-(2-(2-(4-(6-((5-fluoro-4-(4-fluoro-1-isopropyl-2-methyl-1H-benzo[d]imidazol-6-yl)pyrimidin-2-yl)amino)pyridin-3-yl)piperazin-1-yl)acetamido)ethoxy)propanamido)benzamide]
CyclinD1 Degradation (10 μM) (cyclin D1): B (protein percentage degradation < 80%, and >= 50%)
inhibition at 10 µM (CDK4; Calu-1 cells, 16 hours): < 30%

COc1ccc(NC(=O)c2ccccc2NC(=O)CCN2CCN(CCNC(=O)CN3CCN(c4ccc(Nc5ncc6c(C)c(C(C)=O)c(=O)n(C7CCCC7)c6n5)nc4)CC3)CC2)nn1 [CPD-345, 2-(3-(4-(2-(2-(4-(6-((6-Acetyl-8-cyclopentyl-5-methyl-7-oxo-7,8-dihydropyrido[2,3-d]pyrimidin-2-yl)amino)pyridin-3-yl)piperazin-1-yl)acetamido)ethyl)piperazin-1-yl)propanamido)-N-(6-methoxypyridazin-3-yl)benzamide]
CyclinD1 Degradation (200 nM) (cyclin D1): A (protein percentage degradation >=80%)
inhibition at 0.2 µM (CDK4; Calu-1 cells, 200 nM, 16 hours): 50 to 80%

Cc1nc(NC(=O)c2ccccc2NC(=O)CCCCCNC(=O)CN2CCN(c3ccc(Nc4ncc5cc6n(c5n4)C4(CCCCC4)CNC6=O)nc3)CC2)sc1C [CPD-318, N-(4,5-Dimethylthiazol-2-yl)-2-(6-(2-(4-(6-((6′-oxo-7′,8′-dihydro-6′H-spiro[cyclohexane-1,9′-pyrazino[1′,2′:1,5]pyrrolo[2,3-d]pyrimidin]-2′-yl)amino)pyridin-3-yl)piperazin-1-yl)acetamido)hexanamido)benzamide]
CyclinD1 Degradation (10 μM) (cyclin D1): D (protein percentage degradation < 30%)
inhibition at 10 µM (CDK4; Calu-1 cells, 16 hours): 30 to 50%

CC(=O)c1c(C)c2cnc(Nc3ccc(N4CCN(CC(=O)NCCOCCOCCC(=O)Nc5ccccc5C(=O)Nc5ccc(C)s5)CC4)cn3)nc2n(C2CCCC2)c1=O [CPD-065, 2-(3-(2-(2-(2-(4-(6-((6-Acetyl-8-cyclopentyl-5-methyl-7-oxo-7,8-dihydropyrido[2,3-d]pyrimidin-2-yl)amino)pyridin-3-yl)piperazin-1-yl)acetamido)ethoxy)ethoxy)propanamido)-N-(5-methylthiophen-2-yl)benzamide]
CyclinD1 Degradation (200 nM) (cyclin D1): A (protein percentage degradation >=80%)
inhibition at 0.2 µM (CDK4; Calu-1 cells, 200 nM, 16 hours): 50 to 80%

Cc1nc(NC(=O)c2ccccc2NC(=O)CCNC(=O)CN2CCN(Cc3ccc(Nc4ncc(F)c(-c5cc(F)c6nc(C)n(C(C)C)c6c5)n4)nc3)CC2)sc1C [CPD-273, N-(4,5-Dimethylthiazol-2-yl)-2-(3-(2-(4-((6-((5-fluoro-4-(4-fluoro-1-isopropyl-2-methyl-1H-benzo[d]imidazol-6-yl)pyrimidin-2-yl)amino)pyridin-3-yl)methyl)piperazin-1-yl)acetamido)propanamido)benzamide]
CyclinD1 Degradation (10 μM) (cyclin D1): D (protein percentage degradation < 30%)
inhibition at 10 µM (CDK4; Calu-1 cells, 16 hours): < 30%

CC(=O)c1c(C)c2cnc(Nc3ccc(N4CCN(CC(=O)NCCCCCCCNc5nc(C)ccc5C(=O)Nc5nc(C)c(C)s5)CC4)cn3)nc2n(C2CCCC2)c1=O [CPD-338, 2-((7-(2-(4-(6-((6-Acetyl-8-cyclopentyl-5-methyl-7-oxo-7,8-dihydropyrido[2,3-d]pyrimidin-2-yl)amino)pyridin-3-yl)piperazin-1-yl)acetamido)heptyl)amino)-N-(4,5-dimethylthiazol-2-yl)-6-methylnicotinamide]
CyclinD1 Degradation (200 nM) (cyclin D1): A (protein percentage degradation >=80%)
inhibition at 0.2 µM (CDK4; Calu-1 cells, 200 nM, 16 hours): 50 to 80%

CC(=O)c1c(C)c2cnc(Nc3ccc(N4CCN(CC(=O)NCCOCCOCCOCCOCCNC(=O)COc5ccc(C(=O)Nc6ncc(C)s6)c(C)c5)CC4)cn3)nc2n(C2CCCC2)c1=O [CPD-041, 4-((20-(4-(6-((6-Acetyl-8-cyclopentyl-5-methyl-7-oxo-7,8-dihydropyrido[2,3-d]pyrimidin-2-yl)amino)pyridin-3-yl)piperazin-1-yl)-2,19-dioxo-6,9,12,15-tetraoxa-3,18-diazaicosyl)oxy)-2-methyl-N-(5-methylthiazol-2-yl)benzamide]
CyclinD1 Degradation (200 nM) (cyclin D1): D (protein percentage degradation <30%)
inhibition at 0.2 µM (CDK4; Calu-1 cells, 200 nM, 16 hours): < 30%

CC(=O)c1c(C)c2cnc(Nc3ccc(N4CCN(CCNCCCCCCCNc5cccc(C(=O)Nc6nc(C)c(C)s6)c5C)CC4)cn3)nc2n(C2CCCC2)c1=O [CPD-188, 3-((7-((2-(4-(6-((6-Acetyl-8-cyclopentyl-5-methyl-7-oxo-7,8-dihydropyrido[2,3-d]pyrimidin-2-yl)amino)pyridin-3-yl)piperazin-1-yl)ethyl)amino)heptyl)amino)-N-(4,5-dimethylthiazol-2-yl)-2-methylbenzamide]
CyclinD1 Degradation (200 nM) (cyclin D1): D (protein percentage degradation <30%)
inhibition at 0.2 µM (CDK4; Calu-1, 16 h): < 30%

Cc1nc(NC(=O)c2ccccc2NC(=O)CNC(=O)CN2CCN(Cc3ccc(Nc4ncc(F)c(-c5cc(F)c6nc(C)n(C(C)C)c6c5)n4)nc3)CC2)sc1C [CPD-272, N-(4,5-Dimethylthiazol-2-yl)-2-(2-(2-(4-((6-((5-fluoro-4-(4-fluoro-1-isopropyl-2-methyl-1H-benzo[d]imidazol-6-yl)pyrimidin-2-yl)amino)pyridin-3-yl)methyl)piperazin-1-yl)acetamido)acetamido)benzamide]
CyclinD1 Degradation (10 μM) (cyclin D1): D (protein percentage degradation < 30%)
inhibition at 10 µM (CDK4; Calu-1 cells, 16 hours): < 30%

Cc1nc(NC(=O)c2ccccc2NC(=O)CCCCCCCCNC(=O)CN2CCN(c3ccc(Nc4ncc5cc6n(c5n4)C4(CCCCC4)CNC6=O)nc3)CC2)sc1C [CPD-321, N-(4,5-Dimethylthiazol-2-yl)-2-(9-(2-(4-(6-((6′-oxo-7′,8′-dihydro-6′H-spiro[cyclohexane-1,9′-pyrazino[1′,2′:1,5]pyrrolo[2,3-d]pyrimidin]-2′-yl)amino)pyridin-3-yl)piperazin-1-yl)acetamido)nonanamido)benzamide]
CyclinD1 Degradation (10 μM) (cyclin D1): A (protein percentage degradation >= 80%)
inhibition at 10 µM (CDK4; Calu-1 cells, 16 hours): 50 to 80%

Reference: patent US20250235543A1, “MODIFIED PROTEINS AND PROTEIN DEGRADERS” (Cullgen (Shanghai), Inc., priority 2021, published 2025)
